# Assay results published in patent publication US20130267484A1, “TREATMENT OF RHEUMATOID ARTHRITIS WITH MASITINIB” (AB SCIENCE, priority 2010, published 2013).
# Values joined by “and” are separate entries in the source; they are usually repeats but may differ in a detail not shown here. Equal entries are not always repeated.
# System: DMARD-refractory active RA
# Assay: Phase 2a trial of masitinib in DMARD-refractory active RA: efficacy (ACR, ACRn, CRP, DAS28)
# Format: in vivo, Human
# Set-up: ACRn Mean ± SD / ACRn Median: unit not given here
# Text: The main exclusion criteria were patients with: inadequate bone marrow function, defined as an absolute neutrophil count ≦2.5×10^9/litre, and platelets ≦100×10^9/litre; active current infection, history of infection requiring hospitalisation, history of recurrent infections, or treatment with antibiotics within 2 weeks of screening. Treatment wash-out periods observed prior to entry to the study were: a) DMARD use within 4 weeks; b) five half-lives, or wash-out in accordance for a specific drug, whichever is longer; c) any live (attenuated) vaccines taken within 4 weeks; d) use of more than one NSAID or its dosage change within 4 weeks; e) prednisone or equivalent corticosteroid dosage >10 mg/day or any dosage change within 4 weeks; and f) prednisone or equivalent corticosteroid dosage >20 mg administered via intra-articular injection, bolus intramuscular or intravenous treatment within 4 weeks. Other exclusion criteria included any previous use of recombinant interleukin-1 receptor antagonist (IL1-Ra) and patients who were pregnant or nursing.
# Efficacy data are presented using descriptive statistics, contrasting initial dosage groups or according to previous DMARD failure. For comparison of groups according to initial dosage on a continuous variable, Student test (with Satterwhaite correction for unequal variance) or Wilcoxon test were used when normality was not rejected or rejected, respectively (normality determined via the Shapiro-Wilk test). For the same comparison on a qualitative variable, Chi-square or Fisher Exact test (if the Chi-square hypotheses were not filled) were used. The rate of patients achieving the various ACR response variables after 12 weeks of treatment (remission rate) are presented in terms of percentage and number of patients. Patients were assigned to either 3 or 6 mg/kg/day treatment groups based upon a randomisation schedule generated for packaging and labelling by the Biostatistics Section of AB Science. Individual treatment doses to be administered were supplied in sealed envelopes to be opened by the investigator at time of inclusion. Patients received the treatment from the investigator on an open basis.
# Due to the relatively high patient drop-out rate of this study, analysis was conducted on two different datasets: one with an imputation of missing values according to the last observation carried forward (LOCF) methodology and the other in the absence of data imputation, i.e. the observed cases (OC). Analysis for efficacy was performed on a modified Intention-To-Treat (ITT) population and Per Protocol (PP) population. […] The PP population was defined as a subgroup of the ITT population that in addition had presented no major protocol deviations and had completed at least 28 days of treatment exposure.
# [1] = W 60, extension phase, ITT population, n = 8
# [2] = W 72, extension phase, ITT population, n = 7
# [3] = W 72, extension phase, ITT population, n = 9
# [4] = W 84, extension phase, ITT population, n = 4
# [5] = W 84, extension phase, ITT population, n = 8
# [6] = initial dosage 3 mg/kg/day (n = 22), ITT population
# [7] = initial dosage 3 mg/kg/day (n = 22), ITT population, listed as Masitinib
# [8] = initial dosage 6 mg/kg/day (n = 18), ITT population
# [9] = week 12, ITT LOCF, All patients (n = 34)
# [10] = week 12, ITT LOCF, All patients (n = 39)
# [11] = week 12, ITT LOCF, Resistance to MTX (n = 28)
# [12] = week 12, ITT LOCF, Resistance to MTX (n = 32)
# [13] = week 12, ITT LOCF, Resistance to anti-TNFα (n = 18)
# [14] = week 12, ITT LOCF, Resistance to anti-TNFα (n = 19)
# [15] = week 12, PP OC, All patients (n = 24)
# [16] = week 12, PP OC, All patients (n = 27)
# [17] = week 12, PP OC, Resistance to MTX (n = 20)
# [18] = week 12, PP OC, Resistance to MTX (n = 23)
# [19] = week 12, PP OC, Resistance to anti-TNFα (n = 13)
# [20] = week 12, PP OC, Resistance to anti-TNFα (n = 14)
smiles,measurement,setting,value
"Cc1ccc(NC(=O)c2ccc(CN3CCN(C)CC3)cc2)cc1Nc1nc(-c2cccnc2)cs1 [masitinib, 4-(4-methylpiperazin-1-ylmethyl)-N-[4-methyl-3-(4-pyridin-3ylthiazol-2-ylamino)phenyl]benzamide]",ACRn Median,[1],64.9
same,ACRn Min-Max,[1],10.0-93.3
same,"DAS28 <2.6, patients",[2],1 (14%)
same,DAS28 Mean ± SD,[2],3.5 ± 1.5
same,DAS28 Median,[2],3.0
same,DAS28 Min-Max,[2],1.6-6.1
same,"DAS28 ≦3.2, patients",[2],4 (57%)
same,"ACR20, patients reaching level",[3],6 (67%)
same,"ACR50, patients reaching level",[3],3 (33%)
same,"ACR70, patients reaching level",[3],2 (22%)
same,"ACR90, patients reaching level",[3],1 (11%)
same,ACRn Mean ± SD,[3],35.6 ± 41.3
same,ACRn Median,[3],39.7
same,ACRn Min-Max,[3],−27.8-97.4
same,"CRP 0% < Improvement ≦25%, patients",[3],1 (11%)
same,"CRP 25% < Improvement ≦50%, patients",[3],1 (11%)
same,"CRP Deterioration, patients",[3],1 (11%)
same,"CRP Improvement >50%, patients",[3],6 (68%)
same,"CRP Stable, patients",[3],0 (0%)
same,"DAS28 <2.6, patients",[4],2 (50%)
same,DAS28 Mean ± SD,[4],3.1 ± 1.6
same,DAS28 Median,[4],2.5
same,DAS28 Min-Max,[4],1.9-5.5
same,"DAS28 ≦3.2, patients",[4],3 (75%)
same,"ACR20, patients reaching level",[5],7 (88%)
same,"ACR50, patients reaching level",[5],5 (63%)
same,"ACR70, patients reaching level",[5],2 (25%)
same,"ACR90, patients reaching level",[5],1 (13%)
same,ACRn Mean ± SD,[5],50.9 ± 38.0
same,ACRn Median,[5],55.0
same,ACRn Min-Max,[5],−17.6-98.8
same,"CRP 0% < Improvement ≦25%, patients",[5],1 (13%)
same,"CRP 25% < Improvement ≦50%, patients",[5],1 (13%)
same,"CRP Deterioration, patients",[5],1 (13%)
same,"CRP Improvement >50%, patients",[5],5 (63%)
same,"CRP Stable, patients",[5],0 (0%)
same,Share of patients achieving ACR20 who did so at the stated dosage at time of first response,dosage not given,approximately 65%
same,Share of patients achieving ACR50 who did so at the stated dosage at time of first response,dosage not given,~73%
same,Patients achieving up to 90% improvement (ACR90),"extension phase, after 1 year of treatment (60 weeks)",two
same,Duration over which observed improvement is maintained,"extension phase, preliminary",> 84 weeks
same,"Time to first response ACR20, Mean ± SD",[6],51.9 ± 24.5 days
same,"Time to first response ACR20, Median",[6],56 days
same,"Time to first response ACR20, Min-Max",[6],28.0 to 105.0 days
same,"Time to first response ACR50, Mean ± SD",[6],91.9 ± 59.5 days
same,"Time to first response ACR50, Median",[6],84 days
same,"Time to first response ACR50, Min-Max",[6],28.0 to 217.0 days
same,"Time to first response ACR20, Median",[7],56.0 days
same,"Time to first response ACR50, Median",[7],84.0 days
same,"Time to first response ACR20, Mean ± SD",[8],40.3 ± 19.0 days
same,"Time to first response ACR20, Median",[8],29 days
same,"Time to first response ACR20, Min-Max",[8],28.0 to 86.0 days
same,"Time to first response ACR50, Mean ± SD",[8],86.8 ± 61.1 days
same,"Time to first response ACR50, Median",[8],72.5 days
same,"Time to first response ACR50, Min-Max",[8],28.0 to 203.0 days
same,"Time to first response ACR20, Median","initial dosage 6 mg/kg/day (n = 18), ITT population, listed as Masitinib",29.0 days
same,Patients achieving ACR20 and ΔCRP>50% response criteria,regardless of previous treatment (anti-TNFα or MTX failure),approximately 50%
same,Patients with significant reduction (>50%) in CRP levels,week 12,approximately 50%
same,DAS28 Mean ± SD,[9],4.8 ± 1.5
same,DAS28 Min-Max,[9],0.5-7.0
same,ΔDAS28 (change in DAS28 score from baseline),[9],1.7
same,ACRn Mean ± SD,[10],23.0 and 23.0 ± 37.5
same,ACRn Median,[10],25.7
same,ACRn Min-Max,[10],−62.5-87.5
same,DAS28 Mean ± SD,[11],4.8 ± 1.5
same,DAS28 Min-Max,[11],0.5-7.0
same,ΔDAS28 (change in DAS28 score from baseline),[11],1.8
same,ACRn Mean ± SD,[12],24.1 ± 38.8
same,ACRn Median,[12],32.7
same,ACRn Min-Max,[12],−62.5-87.5
same,DAS28 Mean ± SD,[13],5.2 ± 1.1
same,DAS28 Min-Max,[13],3.3-7.0
same,ΔDAS28 (change in DAS28 score from baseline),[13],1.7
same,ACRn Mean ± SD,[14],18.7 ± 36.8
same,ACRn Median,[14],20.6
same,ACRn Min-Max,[14],−62.5-72.2
same,DAS28 Mean ± SD,[15],4.6 ± 1.3
same,DAS28 Min-Max,[15],0.5-7.0
same,ΔDAS28 (change in DAS28 score from baseline),[15],2.0
same,ACRn Mean ± SD,[16],31.6
same,ACRn Median,[16],42.9
same,ACRn Min-Max,[16],−40.0-87.5
same,DAS28 Mean ± SD,[17],4.6 ± 1.4
same,DAS28 Min-Max,[17],0.5-7.0
same,ΔDAS28 (change in DAS28 score from baseline),[17],2.1
same,ACRn Mean ± SD,[18],36.6 ± 31.6
same,ACRn Median,[18],46.9
same,ACRn Min-Max,[18],−40.0-87.5
same,DAS28 Mean ± SD,[19],5.1 ± 1.2
same,DAS28 Min-Max,[19],3.3-7.0
same,ΔDAS28 (change in DAS28 score from baseline),[19],1.8
same,ACRn Mean ± SD,[20],28.1 ± 32.1
same,ACRn Median,[20],44.3
same,ACRn Min-Max,[20],40.0-72.2
